Consider 2 compounds from patent US6440972B1, “Heterocyclic compounds useful as oxido-squalene cyclase inhibitors” (Zeneca Limited, priority 1997, dated 2002).

The test system of one series is cholesterol biosynthesis. Kind of series: In vivo test to measure inhibition of oxido-squalene cyclase / cholesterol biosynthesis in the rat. As to conditions: dosed at 2 mg.kg^−1, oral, rat liver. How it is done:
(b) In vivo Test to Measure Inhibition of Oxido-squalene Cyclase
The ability of a compound to inhibit oxido-squalene cyclase and/or inhibit cholesterol biosynthesis may be assessed by a routine laboratory procedure carried out in the rat. The test involves administration of the compound to rats on a reversed lighting regimen. Female rats (35-55 g) are housed in reverse lighting conditions (red light from 0200 h-[…]) for a period of about 2 weeks prior to test. Animals are allowed free access to chow and drinking water throughout this period. At test, animals should weigh 100-140 g. The rats are dosed orally with the compound (typically 10-50 mg/kg) formulated in a polyethylene glycol/hydroxypropylmethyl cellulose mix. After 1 hour the rats are given triturated sodium mevalonate (15 μCi.kg^−1) intraperitoneally. Two hours after administration of the compound the rats are terminated and a piece of liver removed and weighed. The tissue is saponified at 80° C. for 2 hours in an ethanolic/potassium hydroxide solution (80% w/v aqueous KOH diluted 1:10 with ethanol). Water (2 ml) is added and the mixture extracted with iso-hexane (2×5 ml). The organic extracts are combined, evaporated to dryness under a stream of nitrogen and the residue is dissolved in a mixture of acetonitrile/iso-propanol (300 μl). […] The radio-label content of each fraction is assessed using a radio chemical flow detector. […]

In series [1] the target is T1, microsomal oxido-squalene cyclase (Rattus norvegicus, UniProt P48450).
T1 construct: Microsomes are prepared from rat liver according to methods known in the art; from tissue; host or cells: rat liver microsomes
T1 sequence (P48450 1-733): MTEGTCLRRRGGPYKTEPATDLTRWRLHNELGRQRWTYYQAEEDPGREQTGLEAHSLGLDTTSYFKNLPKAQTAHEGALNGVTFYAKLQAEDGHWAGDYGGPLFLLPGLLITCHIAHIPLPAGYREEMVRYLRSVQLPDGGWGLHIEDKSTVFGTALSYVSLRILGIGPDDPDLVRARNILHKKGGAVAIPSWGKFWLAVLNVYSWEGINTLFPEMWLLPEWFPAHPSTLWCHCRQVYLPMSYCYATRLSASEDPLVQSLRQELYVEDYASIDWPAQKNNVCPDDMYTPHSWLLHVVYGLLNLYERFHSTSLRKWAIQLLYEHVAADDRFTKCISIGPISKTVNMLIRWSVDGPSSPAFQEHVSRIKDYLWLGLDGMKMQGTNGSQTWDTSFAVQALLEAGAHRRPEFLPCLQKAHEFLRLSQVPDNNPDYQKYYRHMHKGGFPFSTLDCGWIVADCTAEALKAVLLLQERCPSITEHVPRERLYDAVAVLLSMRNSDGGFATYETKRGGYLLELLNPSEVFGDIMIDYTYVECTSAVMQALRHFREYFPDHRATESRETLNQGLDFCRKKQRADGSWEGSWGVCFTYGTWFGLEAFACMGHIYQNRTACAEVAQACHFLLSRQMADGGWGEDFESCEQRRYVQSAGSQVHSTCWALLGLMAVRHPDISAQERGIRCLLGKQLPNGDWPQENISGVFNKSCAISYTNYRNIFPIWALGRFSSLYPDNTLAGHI
Kind of series: In vitro test to measure inhibition of oxido-squalene cyclase (rat liver microsomes). Format: biochemical. Particulars: concentration of 0.01 μM. How it is done: (a) In vitro Test to Measure Inhibition of Oxido-squalene Cyclase
This test measures the inhibition of microsomal oxido-squalene cyclase in vitro by compounds at set concentrations in the incubation medium.
Microsomes are prepared from rat liver according to methods known in the art, for example, the method described in published European Patent Application No 324,421 and stored in liquid nitrogen prior to assay. Assay vials are kept at 37° C. throughout the incubation. The microsomes typically contain 15-20 mg of protein per ml of microsomes. For the assay, 1 ml of microsomes are diluted by the addition of 722 μl of 50 mM phosphate buffer pH 7.4.
Phosphate buffered Tween® 80 (polyoxyethylene sorbitan […]) is prepared by adding 0.1 g Tween® 80 to 100 ml of 50 mM phosphate buffer.
A stock solution of oxido-squalene is made up as a solution in ethanol (0.65 mg.ml.^−1). 18 μl of radio-labelled oxido-squalene (1 μCi.ml^−1) is evaporated to dryness under a stream of nitrogen and redissolved in 1 ml of ethanol and 1 ml of the stock solution of oxido-squalene is added.
The test compound is dissolved in dimethyl sulphoxide to give a 10^−1M stock solution. […]
The samples are then placed in a water bath at 80° C. for 2 hours to saponify. […] Reaction rate is measured as the conversion of oxido-squalene to lanosterol, and the effects of test compounds are expressed as an inhibition of this process.

Turning to `O=C(C1CCN(c2ccncc2F)CC1)N1CCN(S(=O)(=O)c2ccc(Br)cc2)CC1`, the melting point (in general, the temperature, or range, at which the solid turns liquid) was 192 °C.
As to `O=C(C1CCN(c2ccncc2Cl)CC1)N1CCN(S(=O)(=O)c2ccc(Br)cc2)CC1` [Example 1], in the series on cholesterol biosynthesis, the “inhibition of rat cholesterol biosynthesis” value was “about 79%”. Further, in series [1], the “inhibition of rat microsomal oxido-squalene cyclase” value is on record as “about 79%”.
